For the assay, the target named is T1, Arf1 (Homo sapiens, UniProt P84077).
T1 construct: endogenous Arf1 in Huh7 cells, active form pulled down with GGA3 and detected with anti-Arf1 antibody
The assay is described as follows: GGA3 pull-down of active Arf1, western blot. The class given is cell-based. The note with it: Huh7 cells; GBF1-dependent Arf1 activation. In general terms: Immunoblotting shows a protein as a band on a membrane.

T1 sequence (P84077 2-181): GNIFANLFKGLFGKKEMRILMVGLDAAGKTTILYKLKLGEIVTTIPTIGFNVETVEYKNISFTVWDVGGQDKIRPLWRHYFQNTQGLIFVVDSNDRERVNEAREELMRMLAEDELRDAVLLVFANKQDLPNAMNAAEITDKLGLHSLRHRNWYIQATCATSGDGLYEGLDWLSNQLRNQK

Turning to `C(=N\Nc1ncnc2sc3c(c12)CCCC3)/c1ccc2[nH]ccc2c1` [DU101], the “GGA3 pull-down of active Arf1, western blot” value is “DU101 or DU102 treatment significantly inhibited Arf1 activity”.
Then `C(=N\Nc1ncnc2sc3c(c12)CCCCCC3)/c1ccc2[nH]ccc2c1` [DU102], with “DU101 or DU102 treatment significantly inhibited Arf1 activity”.
